# In US12098144B2, “Piperazine indazole glucocorticoid receptor antagonists” (Corcept Therapeutics Incorporated, priority 2021, dated 2024):
# pKi: −log10 of the molar value.
# Molecular target: T1, glucocorticoid receptor (Homo sapiens, UniProt P04150)
# T1 construct: endogenous in cells; ATCC cat
# T1 sequence (P04150 1-777): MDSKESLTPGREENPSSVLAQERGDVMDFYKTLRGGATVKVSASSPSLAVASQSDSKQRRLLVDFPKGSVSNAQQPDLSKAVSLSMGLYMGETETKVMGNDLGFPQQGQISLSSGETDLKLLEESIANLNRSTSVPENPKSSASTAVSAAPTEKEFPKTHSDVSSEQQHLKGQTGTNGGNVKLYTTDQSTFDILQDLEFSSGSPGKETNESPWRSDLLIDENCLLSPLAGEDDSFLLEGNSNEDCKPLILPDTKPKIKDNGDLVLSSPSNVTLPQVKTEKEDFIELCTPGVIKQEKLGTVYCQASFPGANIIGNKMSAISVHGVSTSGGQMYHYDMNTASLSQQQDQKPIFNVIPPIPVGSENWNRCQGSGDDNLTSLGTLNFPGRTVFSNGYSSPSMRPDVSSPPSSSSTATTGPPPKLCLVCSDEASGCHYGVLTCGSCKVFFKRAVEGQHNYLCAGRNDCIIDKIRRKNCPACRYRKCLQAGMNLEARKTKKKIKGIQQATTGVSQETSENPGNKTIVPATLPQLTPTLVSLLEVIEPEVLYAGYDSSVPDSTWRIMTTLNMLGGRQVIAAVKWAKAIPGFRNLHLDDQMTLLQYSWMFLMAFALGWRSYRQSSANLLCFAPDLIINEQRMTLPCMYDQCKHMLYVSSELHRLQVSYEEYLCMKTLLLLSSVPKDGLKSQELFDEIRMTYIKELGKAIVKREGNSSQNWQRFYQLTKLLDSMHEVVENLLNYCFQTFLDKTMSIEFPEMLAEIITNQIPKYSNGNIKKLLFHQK
# Test: Hep G2 TAT Ki: inhibition of dexamethasone-induced TAT in HepG2 cells (96 well)
# Format: cell-based
# Conditions: challenge of 100 nM dexamethasone, IC50 converted to Ki by Cheng and Prusoff equation
# Method: Glucocorticoid mediated activation of TAT occurs by transactivation of glucocorticoid response elements in the TAT promoter by glucocorticoid receptor-agonist complex.
# HepG2 cells were cultured using MEME media supplemented with 10% (v/v) foetal bovine serum; 2 mM L-glutamine and 1% (v/v) NEAA at 37° C., 5%/95% (v/v) CO2/air.
# Compounds were serially half log diluted in 100% (v/v) dimethylsulphoxide from a 10 mM stock.
# HepG2 cells were then lysed with 30 μl of cell lysis buffer containing a protease inhibitor cocktail for 15 minutes at 4° C. […] After 2 hours incubation at 37° C. the reaction was terminated by the addition of 15 μl of 10M aqueous potassium hydroxide solution, and the plates incubated for a further 30 minutes at 37° C.
# [compound] and fitting the data to a 4 parameter logistic equation.
row,Compound,pKi
1,"Cc1cc2c(cnn2-c2ccc(F)cc2)cc1C1CN(S(=O)(=O)c2ccc(C#N)cc2)CCN1CCC(F)(F)F (single isomer, unassigned) [Example 130, 4-((3-(1-(4-fluorophenyl)-6-methyl-1H-indazol-5-yl)-4-(3,3,3-trifluoropropyl)piperazin-1-yl)sulfonyl)benzonitrile]",8.11
2,"CCn1ncc(S(=O)(=O)N2CCN(CC(C)C(F)(F)F)C(c3cc4cnn(-c5ccc(F)cc5)c4cc3C)C2)n1 (single isomer, unassigned) [Example 148, 5-(4-((2-ethyl-2H-1,2,3-triazol-4-yl)sulfonyl)-1-(3,3,3-trifluoro-2-methylpropyl)piperazin-2-yl)-1-(4-fluorophenyl)-6-methyl-1H-indazole]",7.42
3,"Cc1cc2c(cnn2-c2ccc(F)cc2)cc1C1CN(C(=O)c2cnn(C)n2)CCN1CC(C)C (stereo not drawn) [Example 67, (3-(1-(4-fluorophenyl)-6-methyl-1H-indazol-5-yl)-4-isobutylpiperazin-1-yl)(2-methyl-2H-1,2,3-triazol-4-yl)methanone]",6.41
4,"Cc1cc2c(cnn2-c2ccc(F)cc2)cc1C1CN(S(=O)(=O)c2cnccc2C)CCN1CC(C)C(F)(F)F (single isomer, unassigned) [Example 149, 1-(4-fluorophenyl)-6-methyl-5-(4-((4-methylpyridin-3-yl)sulfonyl)-1-(3,3,3-trifluoro-2-methylpropyl)piperazin-2-yl)-1H-indazole]",7.25
5,"Cc1ncc(S(=O)(=O)N2CCN(CC(C)C)C(c3cc4cnn(-c5ccc(F)cc5)c4cc3C)C2)s1 (single isomer, unassigned) [Example 31, 5-((3-(1-(4-fluorophenyl)-6-methyl-1H-indazol-5-yl)-4-isobutylpiperazin-1-yl)sulfonyl)-2-methylthiazole]",7.96
6,"Cc1cc2c(cnn2-c2ccc(F)cc2)cc1C1CN(S(=O)(=O)c2ccc(C#N)cc2)CCN1CC(C)C (single isomer, unassigned) [Example 98, 4-((3-(1-(4-fluorophenyl)-6-methyl-1H-indazol-5-yl)-4-isobutylpiperazin-1-yl)sulfonyl)benzonitrile]",7.60
7,"5-(1-(2-fluoro-2-methylpropyl)-4-((2-methyl-2H-1,2,3-triazol-4-yl)sulfonyl)piperazin-2-yl)-1-(4-fluorophenyl)-6-methyl-1H-indazole [Example 162a]",7.24
8,"Cc1cc2c(cnn2-c2ccc(F)cc2)cc1C1CN(S(=O)(=O)C2CCC2)CCN1CC(C)C(F)(F)F (single isomer, unassigned) [Example 151, 5-(4-(cyclobutylsulfonyl)-1-(3,3,3-trifluoro-2-methylpropyl)piperazin-2-yl)-1-(4-fluorophenyl)-6-methyl-1H-indazole]",7.46
9,"COc1ccc(S(=O)(=O)N2CCN(CC(C)C)C(c3cc4cnn(-c5ccc(F)cc5)c4cc3C)C2)cn1 (single isomer, unassigned) [Example 103, 1-(4-fluorophenyl)-5-(1-isobutyl-4-((6-methoxypyridin-3-yl)sulfonyl)piperazin-2-yl)-6-methyl-1H-indazole]",7.46
10,"CO[C@H]1C[C@@H](CN2CCN(S(=O)(=O)c3cnn(C)n3)C[C@H]2c2cc3cnn(-c4ccc(F)cc4)c3cc2C)C1 (relative stereo) [Example 155, 1-(4-fluorophenyl)-5-(1-((3-methoxycyclobutyl)methyl)-4-((2-methyl-2H-1,2,3-triazol-4-yl)sulfonyl)piperazin-2-yl)-6-methyl-1H-indazole]",7.96
11,"Cc1ccc(S(=O)(=O)N2CCN(CC(C)C)C(c3cc4cnn(-c5ccc(F)cc5)c4cc3C)C2)cn1 (single isomer, unassigned) [Example 104, 1-(4-fluorophenyl)-5-(1-isobutyl-4-((6-methylpyridin-3-yl)sulfonyl)piperazin-2-yl)-6-methyl-1H-indazole]",7.72
12,"Cc1cc2c(cnn2-c2ccc(F)cc2)cc1C1CN(S(=O)(=O)c2cccnc2C#N)CCN1CC(C)C (single isomer, unassigned) [Example 107, 3-((3-(1-(4-fluorophenyl)-6-methyl-1H-indazol-5-yl)-4-isobutylpiperazin-1-yl)sulfonyl)picolinonitrile]",7.66
13,"Cc1cc2c(cnn2-c2ccc(F)cc2)cc1C1CN(S(=O)(=O)c2ccccn2)CCN1CC(C)C (single isomer, unassigned) [Example 115, 1-(4-fluorophenyl)-5-(1-isobutyl-4-(pyridin-2-ylsulfonyl)piperazin-2-yl)-6-methyl-1H-indazole]",7.62

# Continued by rising pKi, values first:
row,pKi,Compound
1,6.57,"Cc1cc2c(cnn2-c2ccc(F)cc2)cc1C1CN(S(=O)(=O)c2cnn(C)n2)CCN1CC1CC(=O)N(C)C1 (single isomer, unassigned) [Example 121, 4-((2-(1-(4-fluorophenyl)-6-methyl-1H-indazol-5-yl)-4-((2-methyl-2H-1,2,3-triazol-4-yl)sulfonyl)piperazin-1-yl)methyl)-1-methylpyrrolidin-2-one]"
2,6.74,"COC1CC(N2CCN(S(=O)(=O)c3cnn(C)n3)CC2c2cc3cnn(-c4ccc(F)cc4)c3cc2C)C1 (single isomer, unassigned) [Example 26, 1-(4-fluorophenyl)-5-(1-(3-methoxycyclobutyl)-4-((2-methyl-2H-1,2,3-triazol-4-yl)sulfonyl)piperazin-2-yl)-6-methyl-1H-indazole]"
3,7.19,"Cc1cc2c(cnn2-c2ccc(F)cc2)cc1C1CN(S(=O)(=O)CC2CCOCC2)CCN1CC(C)C (single isomer, unassigned) [Example 61, 1-(4-fluorophenyl)-5-(1-isobutyl-4-(((tetrahydro-2H-pyran-4-yl)methyl)sulfonyl)piperazin-2-yl)-6-methyl-1H-indazole]"
4,7.24,"Cc1cc2c(cnn2-c2ccc(F)cc2)cc1C1CN(S(C)(=O)=O)CCN1CC(C)C (stereo not drawn) [Example 39, 1-(4-fluorophenyl)-5-(1-isobutyl-4-(methylsulfonyl)piperazin-2-yl)-6-methyl-1H-indazole]"
5,7.24,"COc1cc2c(cnn2-c2ccc(F)cc2)cc1C1CN(S(=O)(=O)c2cnn(C)n2)CCN1CC(C)C (stereo not drawn) [Example 22, 1-(4-fluorophenyl)-5-(1-isobutyl-4-((2-methyl-2H-1,2,3-triazol-4-yl)sulfonyl)piperazin-2-yl)-6-methoxy-1H-indazole]"
6,7.34,"CCn1cc(S(=O)(=O)N2CCN(CC(C)C)C(c3cc4cnn(-c5ccc(F)cc5)c4cc3C)C2)cn1 (stereo not drawn) [Example 38, 5-(4-((1-ethyl-1H-pyrazol-4-yl)sulfonyl)-1-isobutylpiperazin-2-yl)-1-(4-fluorophenyl)-6-methyl-1H-indazole]"
7,7.36,"Cc1cc2c(cnn2-c2ccc(F)cc2)cc1C1CN(S(=O)(=O)c2cnn(C)n2)CCN1CC(C)(C)C(F)(F)F (single isomer, unassigned) [Example 163, 1-(4-fluorophenyl)-6-methyl-5-(4-((2-methyl-2H-1,2,3-triazol-4-yl)sulfonyl)-1-(3,3,3-trifluoro-2,2-dimethylpropyl)piperazin-2-yl)-1H-indazole]"
8,7.44,"CO[C@H]1C[C@@H](CN2CCN(S(=O)(=O)c3cnc(C)s3)C[C@@H]2c2cc3cnn(-c4ccc(F)cc4)c3cc2C)C1 (relative stereo) [Example 172, 5-((3-(1-(4-fluorophenyl)-6-methyl-1H-indazol-5-yl)-4-((3-methoxycyclobutyl)methyl)piperazin-1-yl)sulfonyl)-2-methylthiazole]"
9,7.48,"Cc1cc2c(cnn2-c2ccc(F)cc2)cc1C1CN(S(=O)(=O)CC(C)C)CCN1CCC(F)(F)F (single isomer, unassigned) [Example 137, 1-(4-fluorophenyl)-5-(4-(isobutylsulfonyl)-1-(3,3,3-trifluoropropyl)piperazin-2-yl)-6-methyl-1H-indazole]"
10,7.55,"COCCS(=O)(=O)N1CCN(CC(C)C)C(c2cc3cnn(-c4ccc(F)cc4)c3cc2C)C1 (single isomer, unassigned) [Example 60, 1-(4-fluorophenyl)-5-(1-isobutyl-4-((2-methoxyethyl)sulfonyl)piperazin-2-yl)-6-methyl-1H-indazole]"
11,7.62,"CO[C@H]1C[C@@H](CN2CCN(S(=O)(=O)c3csc(C)n3)CC2c2cc3cnn(-c4ccc(F)cc4)c3cc2C)C1 (single isomer, unassigned) [Example 171, 4-((3-(1-(4-fluorophenyl)-6-methyl-1H-indazol-5-yl)-4-((3-methoxycyclobutyl)methyl)piperazin-1-yl)sulfonyl)-2-methylthiazole]"
